Experimental data from publication PMC4459817, “Vasculotide reduces endothelial permeability and tumor cell extravasation in the absence of binding to or agonistic activation of Tie2” (EMBO Molecular Medicine, 2015).
“Also recorded” adds a separate entry of the source.

What was measured:
[1] = test system: human microvascular ECs of dermal blood vessel origin (HMVEC-DBl); assay: modified Boyden chamber, thrombin-stimulated FITC-dextran permeability, HMVEC-DBl; assay type: cell-based; details: HMVEC-DBl; structural control alone; Fig1D
Experimental: ECs were first treated with Vasculotide (VT), PBS (vehicle/negative control), Ang1 (positive control), PEG-Cys (polyethylene glycol backbone), T7c (non-PEGylated CHHHRHSF peptides), or VT in the presence of 100-fold molar excess of T7c. The concentrations used, 10–20 ng/mL VT and 200–400 ng/mL Ang1, are estimated molar equivalents (0.71–1.43 nM). Thirty minutes later, ECs were stimulated with thrombin, 0.1% BSA (vehicle/negative control), or EDTA (positive control). Another 30mins later, the amount of FITC-dextran diffusion into the lower chambers (A, D) provides a measure of endothelial permeability. CMTPX-labeled tumor cells (TCs) were then dispensed into inserts, and the amount of TC fluorescence emitting from the underside of insert membranes after 20 h (B–C) or 28 h (E) reflects the efficiency of trans-endothelial TC migration. Representative fluorescent images (10×) of membrane undersides are shown in (C), where DAPI-stained nuclei of ECs/TCs are shown in blue, ‘extravasated’ CMTPX-labeled TCs are shown in red, and the # of CMTPX^+ pixels are shown numerically in red. Means ± SEM are shown (A,B,D,E). Three experiments (twice with HMVEC-LBl and once with HMVEC-DBl) were run with n = 3–5 inserts (independent biological replicates) per group and analyzed by two-sampled unpaired t-tests. […]
Endothelial cells (ECs) were grown on cell culture inserts with uncoated 8-μm-pore PET filter membranes to 100% confluency. […] After 30 min of thrombin stimulation or 4–6 h of TC-CM stimulation, FITC fluorescence (ex/em = 490/520 nm) was measured from a 50 μl sample of the lower chamber media. […] CMPTX fluorescence from migrated TCs was then quantified from 10× microscopy images using a MATLAB (MathWorks, Natick, MA, USA) script; five images (technical replicates) were analyzed per insert. […]

mouse Tie2-Fc (mTie2-Fc) = molecular target: T1, mouse Tie2-Fc (mTie2-Fc) (Mus musculus, UniProt Q02858); assay: SPR binding to mouse Tie2-Fc; details: mouse Tie2-Fc (low- and high-density), 37°C, pH 7.4, Supplementary Fig S3
T1 construct: Purified human or mouse Tie2-Fc (i.e., Fc-conjugated extracellular domains of Tie2); purchased R&D Systems 762-T2-100
T1 sequence (Q02858 23-746 limits assumed): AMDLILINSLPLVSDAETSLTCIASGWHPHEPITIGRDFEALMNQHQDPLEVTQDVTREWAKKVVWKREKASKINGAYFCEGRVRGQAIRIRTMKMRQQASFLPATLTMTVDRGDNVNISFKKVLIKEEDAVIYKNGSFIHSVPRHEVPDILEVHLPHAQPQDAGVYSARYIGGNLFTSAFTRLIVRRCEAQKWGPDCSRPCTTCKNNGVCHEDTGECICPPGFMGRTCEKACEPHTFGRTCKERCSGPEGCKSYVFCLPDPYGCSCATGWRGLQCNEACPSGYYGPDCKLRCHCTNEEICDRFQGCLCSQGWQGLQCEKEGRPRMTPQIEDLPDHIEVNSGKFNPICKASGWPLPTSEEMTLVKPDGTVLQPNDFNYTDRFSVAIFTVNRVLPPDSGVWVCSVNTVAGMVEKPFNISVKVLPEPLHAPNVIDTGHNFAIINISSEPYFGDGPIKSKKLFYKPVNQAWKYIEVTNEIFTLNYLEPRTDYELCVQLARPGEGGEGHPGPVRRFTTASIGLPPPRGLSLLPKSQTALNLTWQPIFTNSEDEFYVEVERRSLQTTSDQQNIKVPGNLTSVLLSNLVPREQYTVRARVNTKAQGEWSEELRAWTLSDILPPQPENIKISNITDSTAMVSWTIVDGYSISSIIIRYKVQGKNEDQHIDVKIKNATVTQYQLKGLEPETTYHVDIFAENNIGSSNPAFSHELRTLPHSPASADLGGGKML
Text: To better understand the difficulties we had in observing Tie2 activation by VT, we sought to characterize the binding affinity and kinetics of VT to Tie2. Purified human or mouse Tie2-Fc (i.e., Fc-conjugated extracellular domains of Tie2) were first coupled to protein A sepharose beads for pull-down experiments (Fig9A and B) or immobilized on a Biacore CM5 sensor chip for surface plasmon resonance (SPR) experiments (Fig9C and Supplementary Fig S3). […]
9. Tie2 Receptor-Binding Assays
Vasculotide (VT) was manufactured by Bachem UK Ltd. T7c (CHHHRHSF) was synthesized by Genscript (Piscataway, NJ, USA). PEG-Cys consists of a single cysteine reacted to each of the 4 arms of PEG-maleimide (Sunbright PTE-100MA, NOF Corporation, Tokyo, Japan). BowAng1 (Ang1-Fd-Fc-Fd) was made and provided by Regeneron Pharmaceuticals, Inc. (Tarrytown, NY, USA). COMP-Ang1 was purified in the Kerbel lab from serum-free culture media conditioned by an engineered CHO cell line provided by Dr. Gou Young Koh (KAIST), according to published protocols (Hwang et al, 2008).
Recombinant human Angiopoietin-1 (rhAng1) and Vascular Endothelial Growth Factor ( rhVEGF) were […]
purchased from R&D Systems. […]
(structural/molecular weight control for VT), and 40 μL of supernatant (7% of residual/unbound ligand) – were similarly boiled in SDS sample buffer. […]
Binding analysis were performed by exposure of immobilized mTie2-Fc to the analytes diluted in HBS-EP (0.01M HEPES pH 7.4, 0.15M NaCl, 3mM EDTA, 0.005% v/v Tween-20), which was supplemented with 1mg/mL carboxymethyl dextran (NSB reducer, GE Healthcare) to reduce non-specific binding to the sensor chip. […] To quantitatively determine the kinetic properties of the interaction (KD, kd, ka) and avoid mass transport limitations, mTie2-Fc and hTie2-Fc were immobilized at low density (1,000-1,200RU) onto separate flow cells of the CM5 chip using amine coupling chemistry. […] All data were analysed using BIA Evaluation Software 2.0 (GE Healthcare) to calculate kd, ka and KD using the 1:1 ligand binding model. […]

CHHHRHSF [T7c, non-PEGylated CHHHRHSF peptides, reference compound]
trans-endothelial permeability, structural components of VT [1]: partial effects | binding to Tie2-Fc (mouse Tie2-Fc (mTie2-Fc)): no binding to Tie2-Fc was detectable; also recorded: undetectable binding
